Results taken from paper PMC3441526, “KCN1, a Novel Synthetic Sulfonamide Anticancer Agent: In Vitro and In Vivo Anti-Pancreatic Cancer Activities and Preclinical Pharmacology” (PLoS ONE, 2012).
Like-named read-outs stand apart in the source and are kept apart here.

Columns and labels:
[1] = Pharmacokinetic study in mice; type: in vivo, CD-1 mice; conditions: for dose recovered as parental KCN1 from urine: first 24 hr
Protocol: (§1) Female CD-1 and nude mice were administered 35 mg/kg body weight of KCN1 as either a single intravenous injection via a tail vein or via an intraperitoneal injection. At selected time points after dosing, groups of three mice/time point were subjected to a retro-orbital bleed. The blood was collected into heparinized tubes, and plasma was separated by centrifugation. Tissues (brain, skeletal muscle, kidneys, liver, spleen, and heart) were collected by necropsy. Urine and feces were collected on ice for 24 h from mice housed in metabolic cages (n = 3/study). The collection containers and cages were washed twice with 0.9% saline solution, and each urine collection and each wash was analyzed separately, then values were added together for each mouse to determine the total KCN1 present in urine during the collection period. Pharmacokinetic values were derived using Phoenix WinNonlin Version 6.0 (Mountain View, CA).
(§2) An HPLC protocol was developed to detect KCN1 in different matrices (plasma, urine or tissue homogenates) using an Agilent 1120 instrument. KCN1 was separated on a Zorbax SB-C18 (5 µm, 150 × 4.6 mm) analytical column with a Zorbax Reliance Cartridge Guard Column (SB-C18), and the eluate was monitored by UV at 254 nm. The mobile phase was composed of “A” (methanol +0.1% Et3N)-“B” (ddH2O+0.1% Et3N) (80∶20, v/v). Prior to application, the mobile phase was filtered and degassed using a Millipore glass filter system with a nylon membrane (0.2 µm). The peaks for KCN1 were used to establish standard curves and for quantitative analysis of samples. Quantification of the compound was achieved by determination of the peak area at the retention time of approximately 4.4 minutes.
(§3) Plasma (100 µL) was mixed with 200 µL of methanol, vortexed, and centrifuged to remove precipitated proteins. The supernatant was evaporated to dryness under a stream of air. The residue was dissolved in 100 µL of the mobile phase, and 10 µL was injected onto the HPLC system for analysis. Weighed tissues were homogenized in two to five volumes of PBS (based on the weight of the tissue samples), and portions of the homogenates were processed in the same manner as the plasma samples.

[2] = system: HPAC, Panc-1, Mia Paca-2 and BxPC3 pancreatic cancer cells; assay: Western blot of cell cycle-related proteins; type: cell-based, human; conditions: all four cell lines, 12 h and 24 h
Protocol: In the in vitro studies, cells were exposed to various concentrations of KCN1 for 12 or 24 h. For immunoblotting, cell lysates were fractionated with identical amounts of protein by SDS-PAGE and transferred to Bio-Rad trans-Blot nitrocellulose membranes (Bio-Rad Laboratories, Hercules, CA). The nitrocellulose membrane was then incubated in blocking buffer (Tris-buffered saline containing 0.1% Tween 20 and 5% non-fat milk) for 1 hr at room temperature. Then the membrane was incubated with the appropriate primary antibody overnight at 4°C or 2 h at room temperature with gentle shaking. The membrane was washed three times with rinsing buffer (Tris-buffered saline containing 0.1% Tween 20) for 15 min and then incubated with goat anti-mouse/rabbit IgG-horseradish peroxidase-conjugated antibody (Bio-Rad) for 1 h at room temperature. After repeating the washes in triplicate, the protein of interest was detected by enhanced chemilluminescence reagents from PerkinElmer LAS, Inc (Boston, MA).

[3] = Plasma stability determination; type: in vitro ADME, mouse
Protocol: The validated HPLC method was used to evaluate the stability of KCN1 in mouse plasma at 37°C, 4°C and −80°C. KCN1 was dissolved in methanol and diluted with plasma to achieve the two concentrations used in the study: 1 and 10 µM. At the designated time points, samples were removed and extracted using the aforementioned procedure. KCN1 concentrations were quantified and, to illustrate the in vitro stability of the compound, expressed as percentages of the initial concentration.

[4] = Pharmacokinetic study in mice; type: in vivo, nude mice (nu/nu); conditions: for dose recovered as parental KCN1 from urine: first 24 hr
Protocol: as §1, §2, §3

[5] = CD-1 mice, 35 mg/kg, either route
[6] = nude mice, 35 mg/kg, either route

With `COc1ccc(S(=O)(=O)N(Cc2ccc3c(c2)C=CC(C)(C)O3)c2ccccc2)cc1OC` [KCN1, 3,4-dimethoxy-N-[(2,2-dimethyl-2H-chromen-6-yl)methyl]-N-phenylbenzenesulfonamide] the “dose recovered as parental KCN1 from urine” value (from here on “dose recovered”) ([1]; CD-1 mice, 35 mg/kg I.P.) was “less than 0.5%”, the “dose recovered” value ([1]; CD-1 mice, 35 mg/kg intravenously) was “less than 1%” and the detection in brain [1, 5] was “could not be detected after 6 h”. For the same compound, the “time detectable in heart, lungs, liver, spleen, kidneys and skeletal muscle” value [1, 5] was “at least 24 h”, the “time plasma concentration still detectable” value ([1]; CD-1 mice, I.P. 35 mg/kg) was ≥ 24 h and the “time plasma concentration still detectable” value ([1]; CD-1 mice, I.V. 35 mg/kg) was “at least 6 h”. The Tmax ([1]; female, mouse, plasma, ip, CD-1 mice, I.P. 35 mg/kg, read-out: time of maximum plasma level (converted)) was 0.5 h, the concentration at 6 h ([1]; female, mouse, plasma, iv, CD-1 mice, I.V. 35 mg/kg, 6 h after dosing) was < 300 ng/mL and the concentration at 5 min ([1]; female, mouse, plasma, iv, CD-1 mice, bolus I.V. 35 mg/kg, 5 minutes) was 9980 ng/mL. It also gave a half-life ([1]; female, mouse, Brain, CD-1, IP 35 mg/kg) of 3.13 h, a Tmax ([1]; female, mouse, Brain, CD-1, IP 35 mg/kg, read-out: Tmax) of 1 h and a half-life ([1]; female, mouse, Brain, CD-1, IV 35 mg/kg) of 0.53 h. It also gave a Tmax ([1]; female, mouse, Brain, CD-1, IV 35 mg/kg, read-out: Tmax) of 0.08 h, a half-life ([1]; female, mouse, Heart, CD-1, IP 35 mg/kg) of 2.19 h and a Tmax ([1]; female, mouse, Heart, CD-1, IP 35 mg/kg, read-out: Tmax) of 0.17 h. The half-life ([1]; female, mouse, Heart, CD-1, IV 35 mg/kg) was 22.1 h, the Tmax ([1]; female, mouse, Heart, CD-1, IV 35 mg/kg, read-out: Tmax) was 0.08 h and the half-life ([1]; female, mouse, Kidneys, CD-1, IP 35 mg/kg) was 2.5 h. For the same compound, the Tmax ([1]; female, mouse, Kidneys, CD-1, IP 35 mg/kg, read-out: Tmax) was 0.08 h, the half-life ([1]; female, mouse, Kidneys, CD-1, IV 35 mg/kg) was 18.8 h and the Tmax ([1]; female, mouse, Kidneys, CD-1, IV 35 mg/kg, read-out: Tmax) was 0.08 h. For the same compound, the half-life ([1]; female, mouse, Liver, CD-1, IP 35 mg/kg) was 3.5 h, the Tmax ([1]; female, mouse, Liver, CD-1, IP 35 mg/kg, read-out: Tmax) was 4 h and the half-life ([1]; female, mouse, Liver, CD-1, IV 35 mg/kg) was 1.15 h. The Tmax ([1]; female, mouse, Liver, CD-1, IV 35 mg/kg, read-out: Tmax) was 0.08 h, the half-life ([1]; female, mouse, Lungs, CD-1, IP 35 mg/kg) was 2.27 h and the Tmax ([1]; female, mouse, Lungs, CD-1, IP 35 mg/kg, read-out: Tmax) was 0.25 h. For the same compound, the half-life ([1]; female, mouse, Lungs, CD-1, IV 35 mg/kg) was 23.3 h, the Tmax ([1]; female, mouse, Lungs, CD-1, IV 35 mg/kg, read-out: Tmax) was 2 h and the half-life ([1]; female, mouse, Muscle, CD-1, IP 35 mg/kg) was 1.86 h. The Tmax ([1]; female, mouse, Muscle, CD-1, IP 35 mg/kg, read-out: Tmax) was 0.17 h, the half-life ([1]; female, mouse, Muscle, CD-1, IV 35 mg/kg) was 1.52 h and the Tmax ([1]; female, mouse, Muscle, CD-1, IV 35 mg/kg, read-out: Tmax) was 0.08 h. It also gave a half-life ([1]; female, mouse, Plasma, CD-1, IP 35 mg/kg) of 7.35 h, a half-life ([1]; female, mouse, Plasma, CD-1, IV 35 mg/kg) of 0.16 h and a half-life ([1]; female, mouse, Spleen, CD-1, IP 35 mg/kg) of 2.35 h. It also gave a Tmax ([1]; female, mouse, Spleen, CD-1, IP 35 mg/kg, read-out: Tmax) of 2 h, a half-life ([1]; female, mouse, Spleen, CD-1, IV 35 mg/kg) of 0.46 h and a Tmax ([1]; female, mouse, Spleen, CD-1, IV 35 mg/kg, read-out: Tmax) of 0.08 h. For the same compound, the “expression of E2F1, Cdk2, Cdk4, Cdk6, Cdc25c, Cyclin D1 and Cyclin E” value [2] was “decreased expression”, the “expression of p21 and p27” value [2] was “increased the expression” and the “compound remaining in mouse plasma” value ([3]; 4°C, at least 24 hr) was “more than 90%”. The “compound remaining in mouse plasma” value ([3]; 37°C, 8 hr, 1 µM) was “more than 80%”, the “compound remaining in mouse plasma” value ([3]; 37°C, 8 hr, 10 µM) was “more than 80%” and the “compound remaining in mouse plasma” value ([3]; −80°C, up to 4 wks) was “more than 92%”. The Tmax ([4]; female, nude (nu/nu), mouse, plasma, ip, nude mice, I.P. 35 mg/kg, read-out: time of maximum plasma level) was 2 h, the concentration at 6 h ([4]; female, nude (nu/nu), mouse, plasma, iv, nude mice, I.V. 35 mg/kg, 6 h after dosing) was < 300 ng/mL and the concentration at 5 min ([4]; female, nude (nu/nu), mouse, plasma, iv, nude mice, bolus I.V. 35 mg/kg, 5 minutes) was 5190 ng/mL. It also gave a half-life ([4]; female, nude (nu/nu), mouse, Brain, Nu/nu, IP 35 mg/kg) of 0.95 h, a Tmax ([4]; female, nude (nu/nu), mouse, Brain, Nu/nu, IP 35 mg/kg, read-out: Tmax) of 1 h and a half-life ([4]; female, nude (nu/nu), mouse, Brain, Nu/nu, IV 35 mg/kg) of 3.38 h. For the same compound, the Tmax ([4]; female, nude (nu/nu), mouse, Brain, Nu/nu, IV 35 mg/kg, read-out: Tmax) was 0.08 h, the half-life ([4]; female, nude (nu/nu), mouse, Heart, Nu/nu, IP 35 mg/kg) was 1.22 h and the Tmax ([4]; female, nude (nu/nu), mouse, Heart, Nu/nu, IP 35 mg/kg, read-out: Tmax) was 0.08 h. The half-life ([4]; female, nude (nu/nu), mouse, Heart, Nu/nu, IV 35 mg/kg) was 0.36 h, the Tmax ([4]; female, nude (nu/nu), mouse, Heart, Nu/nu, IV 35 mg/kg, read-out: Tmax) was 4 h and the half-life ([4]; female, nude (nu/nu), mouse, Kidneys, Nu/nu, IP 35 mg/kg) was 22.4 h. It also gave a Tmax ([4]; female, nude (nu/nu), mouse, Kidneys, Nu/nu, IP 35 mg/kg, read-out: Tmax) of 0.25 h, a half-life ([4]; female, nude (nu/nu), mouse, Kidneys, Nu/nu, IV 35 mg/kg) of 1.8 h and a Tmax ([4]; female, nude (nu/nu), mouse, Kidneys, Nu/nu, IV 35 mg/kg, read-out: Tmax) of 0.08 h. For the same compound, the half-life ([4]; female, nude (nu/nu), mouse, Liver, Nu/nu, IP 35 mg/kg) was 2.52 h, the Tmax ([4]; female, nude (nu/nu), mouse, Liver, Nu/nu, IP 35 mg/kg, read-out: Tmax) was 0.5 h and the half-life ([4]; female, nude (nu/nu), mouse, Liver, Nu/nu, IV 35 mg/kg) was 3.39 h. For the same compound, the Tmax ([4]; female, nude (nu/nu), mouse, Liver, Nu/nu, IV 35 mg/kg, read-out: Tmax) was 2 h, the half-life ([4]; female, nude (nu/nu), mouse, Lungs, Nu/nu, IP 35 mg/kg) was 1.04 h and the Tmax ([4]; female, nude (nu/nu), mouse, Lungs, Nu/nu, IP 35 mg/kg, read-out: Tmax) was 1 h. It also gave a half-life ([4]; female, nude (nu/nu), mouse, Lungs, Nu/nu, IV 35 mg/kg) of 2 h, a Tmax ([4]; female, nude (nu/nu), mouse, Lungs, Nu/nu, IV 35 mg/kg, read-out: Tmax) of 0.25 h and a half-life ([4]; female, nude (nu/nu), mouse, Muscle, Nu/nu, IP 35 mg/kg) of 2.97 h. For the same compound, the Tmax ([4]; female, nude (nu/nu), mouse, Muscle, Nu/nu, IP 35 mg/kg, read-out: Tmax) was 0.25 h, the half-life ([4]; female, nude (nu/nu), mouse, Muscle, Nu/nu, IV 35 mg/kg) was 2.28 h and the Tmax ([4]; female, nude (nu/nu), mouse, Muscle, Nu/nu, IV 35 mg/kg, read-out: Tmax) was 0.08 h. The half-life ([4]; female, nude (nu/nu), mouse, Plasma, Nu/nu, IP 35 mg/kg) was 2.65 h, the half-life ([4]; female, nude (nu/nu), mouse, Plasma, Nu/nu, IV 35 mg/kg) was 0.6 h and the half-life ([4]; female, nude (nu/nu), mouse, Spleen, Nu/nu, IP 35 mg/kg) was 0.81 h. For the same compound, the Tmax ([4]; female, nude (nu/nu), mouse, Spleen, Nu/nu, IP 35 mg/kg, read-out: Tmax) was 24 h, the half-life ([4]; female, nude (nu/nu), mouse, Spleen, Nu/nu, IV 35 mg/kg) was 1.4 h and the Tmax ([4]; female, nude (nu/nu), mouse, Spleen, Nu/nu, IV 35 mg/kg, read-out: Tmax) was 2 h. For the same compound, the “dose recovered” value ([4]; nude mice, 35 mg/kg I.P.) was “less than 0.5%”, the “dose recovered” value ([4]; nude mice, 35 mg/kg intravenously) was “less than 1%” and the detection in brain [4, 6] was “could not be detected after 6 h”. The “time detectable in heart, lungs, liver, spleen, kidneys and skeletal muscle” value [4, 6] was “at least 24 h”, the “time plasma concentration still detectable” value ([4]; nude mice, I.P. 35 mg/kg) was ≥ 24 h and the “time plasma concentration still detectable” value ([4]; nude mice, I.V. 35 mg/kg) was “at least 6 h”.
